# Assay results as given in PMC12040169 (PLOS Biology, 2025).
# Test: in vitro
# Conditions: human, hela cells, % viability
row,SMILES,"viability at 28.5 h, 10 µM [%]"
1,Cc1ccc(C(=O)CC(C(=O)O)c2cn(CCC#N)c3ccccc23)cc1 (stereo not drawn) [CBK287194],85.8
2,O=C(O)C1CCN(c2c(-c3ccccc3)c3cc(Cl)ccc3[nH]c2=O)CC1 [CBK287198],87.3
3,CCCn1cnc2sc(C(=O)O)c(C)c2c1=O [CBK287199],96
4,CCCNC(=O)CSc1ncccc1C(=O)O [CBK287202],78.6
5,Cc1ccc(CN(c2ccc(C(=O)O)cc2)S(C)(=O)=O)cc1 [CBK287203],85
6,CC(C)(C)NC(=O)COc1ccc(CNCc2ccc(C(=O)O)cc2)cc1 [CBK287204],78.1
7,CCCCNCC(=O)Nc1sc2c(c1C(=O)O)CCCC2 [CBK287207],83.7
8,O=C(O)CCC1C(=O)CCC1(C(=O)O)c1ccccc1 (stereo not drawn) [CBK287208],108
9,O=C(O)C1CCN(C2C(=O)Nc3ccc(Cl)cc3C2c2ccccc2)CC1 (stereo not drawn) [CBK287210],94.4
10,O=C(O)C1CC(=O)N(CCc2c[nH]c3ccc(Cl)cc23)C1 (stereo not drawn) [CBK287211],91
11,CC(C)CC(NC(=O)C1CCC(C)CC1)C(=O)O (stereo not drawn) [CBK287212],88.2
12,O=C(O)[C@@H]1CSC(c2ccc3c(c2)OCO3)N1 (stereo partly drawn) [CBK287214],89.8
13,CN(C)S(=O)(=O)c1ccc(CCC(=O)O)cc1 [CBK287216],92
14,O=C(O)CCSc1nnnn1-c1ccccc1 [CBK287217],88.4
15,O=C(O)Cn1c(=O)[nH]c2c(-c3ccccc3)c[nH]c2c1=O [CBK287218],87.2
16,NC(CSC12CC3CC(CC(C3)C1)C2)C(=O)O (stereo not drawn) [CBK287219],88.2
17,O=C(O)CC(CN1C(=O)c2ccccc2C1=O)C(=O)c1ccccc1 (stereo not drawn) [CBK287221],92.4
18,O=C(O)/C=C/C(=O)NCCc1c[nH]c2ccccc12 [CBK287222],93
19,O=C(O)CCc1ccc(S(=O)(=O)N2CCOCC2)cc1 [CBK287224],90.1
20,CCC(CC)NS(=O)(=O)c1cccc(C(=O)O)c1 [CBK287225],88.3
21,CC12CC(NC(=O)N1c1ccc(C(=O)O)cc1)c1ccccc1O2 (stereo not drawn) [CBK287226],82.2
22,O=C(O)c1ccc(N2C(=O)CC(N3CCN(c4cccc(C(F)(F)F)c4)CC3)C2=O)cc1 (stereo not drawn) [CBK287228],93.3
23,CC(C)(C)NC(=O)COc1ccc(CNc2ccc(C(=O)O)c(Cl)c2)cc1 [CBK287230],111

row,SMILES,"viability at 28.5 h, 10 µM [%]"
1,COc1ccc(-c2nnc(SCC(=O)O)n2C)cc1 [CBK287232],93
2,COc1ccc(C2NC(C(=O)O)C3C(=O)N(c4ccc(C)cc4)C(=O)C23)c(OC)c1 (stereo not drawn) [CBK287233],90.2
3,CC1CCC(C(=O)Nc2ccc(C(=O)O)cc2)CC1 (stereo not drawn) [CBK287234],94.8
4,CCCOc1ccc(N2C(=O)CC(N3CCC(C(=O)O)CC3)C2=O)cc1 (stereo not drawn) [CBK287235],102
5,O=C(O)C(Cc1c[nH]c2ccccc12)NCC1CCCCC1 (stereo not drawn) [CBK287238],110
6,CS(=O)(=O)N(Cc1ccccc1F)c1ccccc1C(=O)O [CBK287239],104
7,COc1ccc(NC(=O)c2cnn3c2NC(C(=O)O)=CC3c2ccccc2)cc1 (stereo not drawn) [CBK287240],101
8,CC(=O)NCCCCCC(=O)Nc1ccc(C(=O)O)cc1 [CBK287241],101
9,O=C(O)c1ccc(CNCC(O)c2ccccc2)cc1 (stereo not drawn) [CBK287243],109
10,O=C(O)Cn1nc(-c2ccccc2)c2ccccc2c1=O [CBK287249],88
11,CN(C)CCNCc1ccc(-c2cccc(C(=O)O)c2)o1 [CBK287250],89.9
12,CCCN1C(C)=NS(=O)(=O)c2cc(C(=O)O)ccc21 [CBK287251],92.4
13,COc1ccc(/C=C/C(=O)O)cc1S(=O)(=O)NCc1ccccc1 [CBK287252],87.9
14,CCOc1ccccc1C1C=C(C(=O)O)Nc2c(C(=O)Nc3ccccc3)cnn21 (stereo not drawn) [CBK287253],93.7
15,Cc1ccc2nc(C(=O)O)cc(OCC(=O)Nc3ccccc3F)c2c1 [CBK287255],88.8
16,Cc1ccc2ncnc(NCCCCCC(=O)O)c2c1 [CBK287256],91.4
17,O=C(O)CNCc1ccc(-c2ccc(Cl)cc2)o1 [CBK287258],102
18,COc1ccc(CN2C(=O)CC(C(=O)O)S/C2=N\c2ccc(Cl)cc2)cc1 (stereo not drawn) [CBK287259],106
19,Cc1ccc(-c2noc(-c3cccnc3N3CCC(C(=O)O)CC3)n2)cc1 [CBK287260],90.3
20,O=C(O)CCN1CCN(c2ccc(F)cc2)CC1 [CBK287262],79.6
21,O=C(O)CSC1=CC(=O)N(c2ccc(Br)cc2)C1=O [CBK287263],81.5
22,COc1ncccc1C(=O)NCC(CC(=O)O)c1ccc(Cl)cc1 (stereo not drawn) [CBK287264],92.1
23,O=C(O)c1ccc(CNCCc2c[nH]c3ccccc23)cc1 [CBK287265],87.6

row,SMILES,"viability at 28.5 h, 10 µM [%]"
1,CCN1C(=O)CC(C(=O)O)S/C1=N\c1ccc(OC)cc1 (stereo not drawn) [CBK287266],105
2,O=C(O)C1(NCc2ccc(F)cc2)CCCCC1 [CBK287270],87.1
3,Cc1cc(C)nc(N2CCN(CCC(=O)O)CC2)n1 [CBK287272],97
4,Cc1onc(-c2ccccc2)c1C(=O)n1cccn1 [CBK287274],97.5
5,CNS(=O)(=O)c1ccc2c3c(cccc13)C(=O)N2 [CBK287275],89.7
6,Fc1cnc(Nc2ccccc2)nc1N1CCOCC1 [CBK287279],76.5
7,Cc1nn(-c2ccccn2)c2c1-c1oncc1CC2 [CBK287280],90.7
8,COc1ccc(C2CC(c3ccccc3O)=NN2)cc1 (stereo not drawn) [CBK287281],77.8
9,O=C(Nc1ccc(F)cc1)C1CC(=O)n2c(nc3ccccc32)N1 (stereo not drawn) [CBK287282],101
10,c1nc2nc[nH]c(N3CCN(Cc4ccc5c(c4)OCO5)CC3)c-2n1 [CBK287283],83.5
11,Cc1ccc(NC(=O)c2cnc3ccc(C)cn3c2=O)cc1 [CBK287285],90.2
12,Cc1ccc2ncc(C(=O)Nc3ccc(F)cc3F)c(=O)n2c1 [CBK287286],95.6
13,CCOc1ccc(C(=O)Nc2nonc2CC)cc1 [CBK287287],94.3
14,Fc1ccc(OCc2nn3cnnc3s2)cc1 [CBK287288],102
15,CC(C)(C)c1nnc2sc(-c3cccnc3)nn12 [CBK287289],112
16,Cc1csc2ncc(C(=O)NCc3ccc4c(c3)OCO4)c(=O)n12 [CBK287292],109
17,CCOc1ccc2nc(NC(=O)CC)sc2c1 [CBK287295],107
18,COc1ccc(-c2cn3cccnc3n2)cc1NC(=O)c1ccccc1 [CBK287296],73.8
19,O=C(CSc1ccc(-c2ccncc2)nn1)Nc1ccc(F)cc1 [CBK287297],91
20,CC1CCc2nc(NC(=O)c3ccccc3)sc2C1 (stereo not drawn) [CBK287298],97.2
21,COc1ccc(C(=O)Nc2nc3c(C)cccc3s2)c(OC)c1 [CBK287301],82.6
22,Cc1ccc(C(=O)Nc2nc3ccc4nc(C)sc4c3s2)cc1 [CBK287305],91.8
23,COc1ccc(C(=O)Nc2nc3ccc(OC)cc3s2)cc1 [CBK287306],96.5
